Results on one compound are retold here after publication PMC11775185, “Structure and function of a near fully-activated intermediate GPCR-Gαβγ complex” (Nature Communications, 2025).

SMILES strings stand for the structures.

Common to all, as to assay: GTPase-Glo luminescence, Lineweaver-Burk
Experiment [1] concerns T1, WT*-mediated Gαsβγ (A2AR-Gαsβγ complex).
T1 construct: gene GNAS; cited protocols may use bovine/rat subunits), with purified A2AR_316 V229C in LMNG/CHS; Adenosine receptor A2a
Type of experiment: biochemical, Homo sapiens. As to conditions: agonist-activated WT* receptor (S5), with cognate GAP, pH […], room temperature. The text has this: GTPase-Glo luminescence, Lineweaver-Burk on WT*-mediated Gαsβγ (A2AR-Gαsβγ complex) | and the S5 mediated Gαsβγ (positive control)

For the next experiment, the system named is T2, Gαsβγ alone.
T2 construct: gene GNAS; full-length Gαsβγ heterotrimer without receptor
The class given is biochemical. As to conditions: […] Gαsβγ without receptor, with cognate GAP, pH […], room temperature. The text has this:
GTPase-Glo luminescence, Lineweaver-Burk on Gαsβγ alone | Km values for S4 mediated Gαsβγ, in reference to Gαsβγ alone (negative control)

Experiment [2] deals with T3, Gαsβγ (A2AR-Gαsβγ complex).
T3 construct: gene GNAS; cited protocols may use bovine/rat subunits), with purified A2AR_316 V229C in LMNG/CHS; Adenosine receptor A2a
Type of experiment: biochemical, Homo sapiens. As to conditions: R291A receptor (S4), with cognate GAP, pH […], room temperature. An excerpt:
GTPase-Glo luminescence, Lineweaver-Burk on WT*-mediated Gαsβγ (A2AR-Gαsβγ complex) | we measured the initial rates and Michaelis constants of GTP hydrolysis

As to `Nc1nc2c(ncn2[C@@H]2O[C@H](COP(=O)(O)OP(=O)(O)OP(=O)(O)O)[C@@H](O)[C@H]2O)c(=O)[nH]1` [GTP], the Km amounted to 32.1 ± 1 µM in experiment [1], 8.3 ± 0.61 µM with Gαsβγ alone and 18 ± 1.87 µM in experiment [2].
